Test results taken from CN104546697A, “一种右旋布洛芬注射液药物组合物及其制备方法” (CHENGDU EASTON PHARMACEUTICAL Co Ltd, priority 2013, dated 2015).

Columns and labels:
[1] = background art; cited from earlier work
[2] = test system: carrageenan-induced rise of body temperature in rats [大鼠角叉菜胶诱导的体温升高]; assay: Effect on carrageenan-induced rise of body temperature in rats; assay type: in vivo, SD rat; details: rat, IV
[3] = test system: pain threshold in the mouse hot plate method [小鼠热板法痛阈]; assay: Effect on pain threshold in the mouse hot plate method; assay type: in vivo, Kunming mouse, female; details: IV, dose exceeding 80mg/kg

Row | Compound | pharmacological activity [1] | pharmacological activity relative to levorotatory ibuprofen [1] [fold] | pharmacological activity relative to racemate [1] [fold] | dose range with the best, dose-dependent effect ([2]; carrageenan-induced rise of body temperature) | temperature-lowering effect above the best dose range ([2]; dose exceeding 40mg/kg) | analgesic effect above the best dose range [3]
1 | CC(C)Cc1ccc([C@@H](C)C(=O)O)cc1 [左旋布洛芬] | 非活性成分 | – | – | – | – | –
2 | CC(C)Cc1ccc([C@H](C)C(=O)O)cc1 [右旋布洛芬] | – | 160 | 1.6 | 7.5~30 mg/kg | 降温效果反而减弱 | 镇痛效果反而减弱
